Calls of active or inactive are those of the source. The calls are words filed in the database; no cut-off is given here.
How the values were obtained:
[1] = test system: HCT-116; experiment: Induction of apoptosis in human HCT116 cells assessed as increase in mitochondrial superoxide radical after 16 hrs by MitoSOX Red staining based flow cytometry; type: functional, cell-based
[2] = test system: HCT-116; experiment: Induction of apoptosis in ATG5 scramble human HCT116 cells assessed as early apoptotic cells at 5 uM after 24 hrs by Annexin V-FITC/propidium iodide staining based flow cytometry (reference value: 1.99%); type: functional
[3] = test system: HCT-116; experiment: Induction of apoptosis in Bax deficient human HCT116 cells assessed as early apoptotic cells at 10 uM after 24 hrs by Annexin V-FITC/propidium iodide staining based flow cytometry (reference value: 1.13%); type: functional
[4] = test system: HCT-116; experiment: Induction of apoptosis in Bax deficient human HCT116 cells assessed as early apoptotic cells at 15 uM after 24 hrs by Annexin V-FITC/propidium iodide staining based flow cytometry (reference value: 0.85 to 1.13%); type: functional
[5] = test system: HCT-116; experiment: Induction of apoptosis in human HCT116 cells assessed as early apoptotic cells at 5 uM after 24 hrs by Annexin V-FITC/propidium iodide staining based flow cytometry (reference value: 1.06 to 2.2%); type: functional
[6] = test system: Mus musculus; experiment: Toxicity in immune deficient nude BALB/c mouse xenografted with human HCT116 cells assessed as changes in body weight at 5 and 10 mg/kg, ip administered every other day for 2 weeks measured during compound dosing; type: organism-based, HCT-116; conditions: in vivo, 336 h
[7] = target: c-Jun N-terminal kinase, JNK (Homo sapiens) (UniProt P45983+P53779+P45984); experiment: Induction of JNK phosphorylation in human HCT116 cells at 5 uM after 4 hrs by Western blot analysis; type: cell-based; conditions: HCT-116
[8] = test system: HCT-116; experiment: Induction of apoptosis in ATG5 scramble human HCT116 cells assessed as late apoptotic cells at 5 uM after 24 hrs by Annexin V-FITC/propidium iodide staining based flow cytometry (reference value: 3.35%); type: functional
[9] = test system: HCT-116; experiment: Induction of apoptosis in human HCT116 cells assessed as early apoptotic cells at 5 uM after 24 hrs by Annexin V-FITC/propidium iodide staining based flow cytometry in presence of NAC (reference value: 2.2%); type: functional
[10] = test system: HCT-116; experiment: Induction of apoptosis in human HCT116 cells assessed as late apoptotic cells at 5 uM after 24 hrs by Annexin V-FITC/propidium iodide staining based flow cytometry in presence of DTT (reference value: 3.73%); type: functional
[11] = test system: HCT-116; experiment: Induction of apoptosis in human HCT116 cells assessed as early apoptotic cells at 10 uM after 24 hrs by Annexin V-FITC/propidium iodide staining based flow cytometry (reference value: 1.06%); type: functional
[12] = test system: HCT-116; experiment: Induction of apoptosis in human HCT116 cells assessed as necrotic cells at 5 uM after 24 hrs by Annexin V-FITC/propidium iodide staining based flow cytometry (reference value: 0.44%); type: functional
[13] = test system: HCT-116; experiment: Induction of apoptosis in human HCT116 cells assessed as ATG5 cleavage at 5 uM after 4 to 12 hrs by Western blot analysis; type: functional, cell-based
[14] = test system: HCT-116; experiment: Induction of apoptosis in human HCT116 cells assessed as late apoptotic cells at 10 uM after 12 hrs by Annexin V-FITC/propidium iodide staining based flow cytometry (reference value: 3.37%); type: functional
[15] = test system: HCT-116; experiment: Induction of Bcl-2 expression in human HCT116 cells at 5 uM after 4 to 12 hrs by qRT-PCR method; type: functional, cell-based
[16] = Cytotoxicity against human HCT116 cells assessed as reduction in cell viability after 24 hrs by MTT assay; type: functional, cell-based; conditions: HCT-116, 24 h

With `CO[C@@H]1C(C=O)=CC[C@@H]2C3=C(C(C)C)CC[C@]3(C)CC[C@@]2(C)[C@H]1O` the Activity [1] was “Dose-dependent effect”, the Activity [2] was 15.2% and the Activity [3] was 44.04%. The Activity [4] was 47.04%, the Activity [5] was 24.72% and the Activity [6] was “Non-toxic”. The Activity [7] was “Active”, the Activity [8] was 5.53% and the Activity [9] was 1.35%. For the same compound, the Activity [10] was 13.34%, the Activity [11] was 59.5% and the Activity [12] was 5.93%. For the same compound, the Activity [13] was “Active”, the Activity [14] was 22.01% and the Activity [15] was “Active”. It also gave an IC50 [16] of 9.16 µM.

Reference: ChEMBL document CHEMBL3769391, “Identification of a new cyathane diterpene that induces mitochondrial and autophagy-dependent apoptosis and shows a potent in vivo anti-colorectal cancer activity” (Eur J Med Chem, 2016)
